Test results from patent publication US20130111611A1, “METHOD TO MEASURE THE METABOLIC RATE OR RATE OF GLUCOSE CONSUMPTION OF CELLS OR TISSUES WITH HIGH SPATIOTEMPORAL RESOLUTION USING A GLUCOSE NANOSENSOR” (CARNEGIE, INSTITUTION OF WASHINGTON, priority 2010, published 2013).

System: cultured astrocytes
Assay: Intracellular glucose and glycolytic rate in cultured astrocytes with FRET glucose nanosensor (ITM)
Assay type: cell-based, mouse
Details: for glycolytic rate obtained with the GLUT inhibitor: cultured astrocytes, n=20 cells in three paired experiments, not significantly different between inhibitors; for effect on the intracellular concentration of glucose: cultured astrocytes exposed to the compound, FIG. 3a
Source text: In another embodiment, the disruption of the glucose steady-state can be attained by blocking the glucose transporter GLUT with a suitable inhibitor (ITM).
Independent of the embodiment of the method used to disrupt the steady-state, the rate of glycolysis is estimated by fitting a monoexponential function to the time course of decay. In one embodiment, the metabolic rate is computed from the rate of glucose concentration decrease at the point when the intracellular concentration becomes equal to the extracellular concentration, for instance at 0.3 mM (interrupted line in FIG. 2b). In a second embodiment, in the presence of a GLUT blocker, the metabolic rate is computed from the rate of glucose concentration decrease at any glucose concentration.
Animals used were mixed F1 male mice (C57BU6J×CBA/J), kept in an animal room under SPF conditions at a room temperature of 20±2° C., in a 12/12 h light/dark cycle with free access to food and water. All experiments were approved by the Centro de Estudios Científicos Animal Care and Use Committee. Mixed cortical cultures of neuronal and glial cells were prepared from 1-3 day-old neonatal mice as described in Loaiza et al.^19, except that N1-N2/MEM was replaced by B27-supplemented Neurobasal medium (Gibco). Cultures were maintained at 37° C. in a humidified atmosphere of 5% CO2. At days 5-7, cultures in 35 mm dishes were transfected with 5 μg plasmid DNA using Lipofectamine 2000 (Gibco) or alternatively, exposed to 5×10^6 PFU of adenoviral vector.
Experiments were carried out at room temperature (22-25° C.). Cultured cells were imaged in HEPES-buffered saline containing (in mM): 136 NaCl, 3 KCl, 1.25 CaCl2, 1.25 MgSO4, 1-2 glucose, 2 sodium lactate, 10 HEPES, pH 7.4 or in 95% O2/5% CO2-gassed buffer of the following composition (in mM): 112 NaCl, 3 KCl, 1.25 CaCl2, 1.25 MgCl2, 1-2 glucose, 2 sodium lactate, 10 HEPES, 24 NaHCO3, pH 7.4. Brain slices were superfused with a 95% O2/5% CO2-gassed buffer containing (in mM): 126 NaCl, 3 KCl, 1.25 NaH2PO4, 1.25 CaCl2, 1.25 MgCl2, 2-3 glucose, 1 sodium lactate, 26 NaHCO3, pH 7.4. When using higher K^+ concentrations, NaCl was adjusted to maintain isotonicity. Cultures and slices were imaged with an Olympus IX70 inverted microscope equipped with a 40× oil-immersion objective, a Cairn monochromator with Optosplit (Faversham, UK), and a Hamamatsu Orca camera (Hamamatsu City, Japan) controlled by Kinetics software. For FRET measurements, CFP was excited at 430 nm for 400 ms. Because of the very high FRET efficiency of FLII12 Pglu600μ ? , which results in low CFP signal^7, we opted for not using the CFP signal in our protocol. Instead, YFP/citrine was excited for 50 ms, which provided a sugar-insensitive denominator for the FRET ratio. […]

For O=C(CCc1ccc(O)cc1)c1c(O)cc(O)cc1O [Phloretin], the “glycolytic rate obtained with the GLUT inhibitor” value was 1.7 ± 0.3 µM/s.
For C=C1[C@@H](C)[C@H]2[C@H](Cc3ccccc3)NC(=O)[C@]23OC(=O)/C=C/[C@H](O)CCC[C@@H](C)C/C=C/[C@H]3[C@@H]1O [cytochalasin B], the “effect on the intracellular concentration of glucose” value was “linear decrease in the concentration of glucose” and the “glycolytic rate obtained with the GLUT inhibitor” value was 1.8 ± 0.3 µM/s.
With C=C1[C@@H](C)[C@H]2[C@H](Cc3ccccc3)NC(=O)[C@]23[C@H](OC(C)=O)/C=C/[C@@](C)(O)C(=O)[C@@H](C)C/C=C/[C@H]3[C@@H]1O [cytochalasin D] the “effect on the intracellular concentration of glucose” value was “did not affect the concentration of glucose”.
